{"source": "patent US9271991B2", "about": "“Trimegestone (TMG) for treatment of preterm birth” (Dignity Health, priority 2010, dated 2016)", "origin": "cited, not measured here", "key": {"[1]": {"tested_on": "MMP expression (MMP-1, MMP-3) in cultured stromal cells", "conditions": "cited from earlier work"}, "[2]": {"molecular_target": "T1, androgen receptor (Homo sapiens, UniProt P10275)", "T1 sequence (P10275 1-920)": "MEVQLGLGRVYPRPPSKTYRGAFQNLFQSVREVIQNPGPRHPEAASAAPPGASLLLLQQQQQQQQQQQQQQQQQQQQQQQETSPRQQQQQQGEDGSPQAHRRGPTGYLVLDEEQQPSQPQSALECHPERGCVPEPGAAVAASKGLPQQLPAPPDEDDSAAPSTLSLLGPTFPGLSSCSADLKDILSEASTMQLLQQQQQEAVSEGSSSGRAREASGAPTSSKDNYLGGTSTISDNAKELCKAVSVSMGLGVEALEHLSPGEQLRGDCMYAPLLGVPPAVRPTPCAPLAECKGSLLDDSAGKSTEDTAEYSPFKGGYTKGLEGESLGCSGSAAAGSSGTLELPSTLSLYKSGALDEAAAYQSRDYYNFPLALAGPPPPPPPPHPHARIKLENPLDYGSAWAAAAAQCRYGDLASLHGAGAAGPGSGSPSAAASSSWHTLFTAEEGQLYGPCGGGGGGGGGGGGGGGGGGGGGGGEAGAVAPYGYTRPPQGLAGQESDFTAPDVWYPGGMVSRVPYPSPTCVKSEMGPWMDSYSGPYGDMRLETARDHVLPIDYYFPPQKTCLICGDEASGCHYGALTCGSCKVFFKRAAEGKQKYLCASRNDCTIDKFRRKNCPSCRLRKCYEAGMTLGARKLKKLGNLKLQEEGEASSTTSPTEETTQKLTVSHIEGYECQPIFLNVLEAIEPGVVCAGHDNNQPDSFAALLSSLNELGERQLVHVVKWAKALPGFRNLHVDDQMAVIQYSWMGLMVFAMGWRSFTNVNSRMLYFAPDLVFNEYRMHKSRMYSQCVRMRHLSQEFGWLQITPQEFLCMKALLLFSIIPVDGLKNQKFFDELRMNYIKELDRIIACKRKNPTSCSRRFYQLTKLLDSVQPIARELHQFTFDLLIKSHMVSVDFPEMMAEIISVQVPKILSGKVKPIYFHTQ", "conditions": "cited from earlier work"}, "[3]": {"molecular_target": "T2, glucocorticoid receptor (Homo sapiens, UniProt P04150)", "T2 sequence (P04150 1-777)": "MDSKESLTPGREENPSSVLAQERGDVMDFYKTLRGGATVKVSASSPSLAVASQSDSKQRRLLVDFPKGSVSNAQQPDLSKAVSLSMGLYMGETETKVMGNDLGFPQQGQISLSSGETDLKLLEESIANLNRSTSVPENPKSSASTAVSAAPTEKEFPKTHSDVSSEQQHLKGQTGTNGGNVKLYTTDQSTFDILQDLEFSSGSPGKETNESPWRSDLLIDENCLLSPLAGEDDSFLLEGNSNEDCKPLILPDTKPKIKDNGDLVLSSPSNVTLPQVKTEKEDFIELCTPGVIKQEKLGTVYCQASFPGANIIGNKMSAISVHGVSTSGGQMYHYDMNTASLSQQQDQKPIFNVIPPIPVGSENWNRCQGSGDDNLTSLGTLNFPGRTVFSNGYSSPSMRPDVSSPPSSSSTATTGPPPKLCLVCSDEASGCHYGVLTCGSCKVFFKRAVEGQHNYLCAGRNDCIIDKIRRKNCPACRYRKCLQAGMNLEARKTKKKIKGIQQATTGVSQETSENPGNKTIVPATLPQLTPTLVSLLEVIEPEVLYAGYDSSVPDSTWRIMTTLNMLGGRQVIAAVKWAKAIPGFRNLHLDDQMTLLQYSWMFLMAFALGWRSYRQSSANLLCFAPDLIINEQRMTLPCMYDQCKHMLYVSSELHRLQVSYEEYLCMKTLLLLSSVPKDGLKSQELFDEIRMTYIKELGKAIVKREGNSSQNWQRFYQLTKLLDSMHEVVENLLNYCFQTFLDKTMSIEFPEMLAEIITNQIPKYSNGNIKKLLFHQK", "conditions": "cited from earlier work"}, "[4]": {"conditions": "species not stated; cited from earlier work"}, "[5]": {"molecular_target": "T3, estrogen receptor (Homo sapiens, UniProt P03372)", "T3 sequence (P03372 1-595)": "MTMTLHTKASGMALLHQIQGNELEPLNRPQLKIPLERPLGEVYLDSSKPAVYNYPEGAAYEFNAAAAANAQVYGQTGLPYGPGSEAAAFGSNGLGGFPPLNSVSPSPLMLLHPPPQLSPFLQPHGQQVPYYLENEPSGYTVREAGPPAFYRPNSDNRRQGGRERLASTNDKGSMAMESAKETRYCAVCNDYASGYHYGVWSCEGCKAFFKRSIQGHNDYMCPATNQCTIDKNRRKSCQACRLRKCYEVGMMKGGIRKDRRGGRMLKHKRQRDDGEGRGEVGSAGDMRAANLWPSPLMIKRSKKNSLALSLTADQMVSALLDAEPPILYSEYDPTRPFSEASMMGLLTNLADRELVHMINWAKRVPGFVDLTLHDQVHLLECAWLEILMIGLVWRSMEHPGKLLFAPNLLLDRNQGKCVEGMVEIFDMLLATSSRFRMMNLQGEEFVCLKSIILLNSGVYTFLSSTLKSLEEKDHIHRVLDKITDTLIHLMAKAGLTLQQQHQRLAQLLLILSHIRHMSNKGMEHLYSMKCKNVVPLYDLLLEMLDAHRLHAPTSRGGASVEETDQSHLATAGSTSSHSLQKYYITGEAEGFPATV", "conditions": "cited from earlier work"}, "[6]": {"tested_on": "estrogenic activity in the uterine endometrium", "conditions": "in vivo; cited from earlier work"}, "[7]": {"tested_on": "mineralocorticoid receptors (MR)", "conditions": "cited from earlier work"}}, "note": "“Also recorded” adds a separate entry of the source."}
{"compound": "C[C@H](O)C(=O)[C@@]1(C)CC[C@H]2[C@@H]3CCC4=CC(=O)CCC4=C3CC[C@@]21C", "note": "[TMG, trimegestone]", "values": [{"measurement": "effect on MMP expression compared to P4", "setting": "[1]", "value": "differential effect on MMP expression; also recorded: tighter control of MMP expression"}, {"measurement": "affinity to the androgen receptor", "setting": "[2]", "value": "low affinity"}, {"measurement": "affinity to the glucocorticoid receptor", "setting": "[3]", "value": "low affinity"}, {"measurement": "half-life", "setting": "[4]", "value": 17, "unit": "h"}, {"measurement": "affinity for the estrogen receptor", "setting": "[5]", "value": "no measurable affinity"}, {"measurement": "antagonism of estrogenic activity in the uterine endometrium versus reference progestins", "setting": "[6]", "value": "highest level of estrogenic activity antagonism; also recorded: most potent antagonist of estrogenic activity"}, {"measurement": "affinity to the mineralocorticoid receptor", "setting": "[7]", "value": "low affinity"}, {"measurement": "relative binding affinity (RBA) for TMG-mineralocorticoid receptors (MR)", "setting": "[7]", "value": 42}]}
